The target of one assay is T1, TbINO1 (Trypanosoma brucei brucei, UniProt Q5QQ46).
T1 sequence (Q5QQ46 1-528): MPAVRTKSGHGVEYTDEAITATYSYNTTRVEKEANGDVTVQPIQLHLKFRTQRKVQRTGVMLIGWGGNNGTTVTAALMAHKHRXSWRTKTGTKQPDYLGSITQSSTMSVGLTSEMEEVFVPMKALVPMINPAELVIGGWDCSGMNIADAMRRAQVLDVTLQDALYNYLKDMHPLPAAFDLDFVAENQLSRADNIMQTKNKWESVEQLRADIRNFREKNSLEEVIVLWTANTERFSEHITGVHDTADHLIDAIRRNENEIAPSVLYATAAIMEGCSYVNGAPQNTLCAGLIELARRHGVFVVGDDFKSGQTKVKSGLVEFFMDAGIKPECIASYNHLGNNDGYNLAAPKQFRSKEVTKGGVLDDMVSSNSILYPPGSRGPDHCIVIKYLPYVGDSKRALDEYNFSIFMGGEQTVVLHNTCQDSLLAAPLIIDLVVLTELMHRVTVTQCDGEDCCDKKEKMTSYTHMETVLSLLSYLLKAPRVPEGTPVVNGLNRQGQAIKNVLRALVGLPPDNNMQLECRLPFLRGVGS
Put plainly: biochemical. The class given is binding. Conditions: for Tb Ino1 Tm Shift [˚C]: Supplementary Table 1, compound 1mM, mean ± SD from Boltzman curve fitting.

A further assay has as its system HeLa cells. Put plainly: cells. The note with it: for viability at 500 µM / CC50: Homo sapiens, HeLa; for viability at 500 µM: 65 h; for CC50: read-out: HeLa ED50; for HeLa Cells Alamar Blue: Supplementary Table 1, compound 0.5 mM, percentage of controls, mean ± SD (n=3) or SE (n=2). In a few lines:
(§1)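 HeLa and A549 cells grown in DMEM with 10% FCS and 2 mM L-Glutamine were seeded at 2 × 10^4 cells/well. They were exposed to compounds for ~65 hours, then Alamar Blue was added for a further 5 hours to measure viability.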

For another assay, the system named is A549 cells. Kind of assay: Cytotoxicity against A549 cells, Alamar Blue. Conditions: Supplementary Table 1, compound 0.5 mM, percentage of controls (n=1); for viability at 500 µM: Homo sapiens, A549, 65 h. The class given is cell-based. An outline of the steps: as §1
A general note: Alamar Blue is a resazurin reagent that responds to reducing activity.

Setting [1] is: read-out: Tb Ino1 Tm Shift [˚C].
Where [2] appears, read: read-out: HeLa Cells Alamar Blue.
Setting [3] is: read-out: HeLa Cells Alamar Blue (% survival).

Consider 31 molecules from PMC3199943, “Screening the MayBridge Rule of 3 Fragment Library for Compounds That Interact with the Trypanosoma brucei myo-Inositol-3-Phosphate Synthase and/or Show Trypanocidal Activity” (Molecular Biology International, 2011).

Read-outs that look alike come from different tables or passages of the source.

As to `NC(=S)N1CCOCC1` [compound 159, morpholine‐4‐carbothioamide], the ΔTm at 1000 µM at TbINO1 (setting [1]) stood at 0.21 ± 0.05 °C. Further, the values for the viability at 500 µM in the assay with HeLa cells (setting [2]) and in the assay with A549 cells were 93.8 ± 9.3% and 109%, respectively.

`Oc1ccc(F)c(Cl)c1` [compound 160, 3‐chloro‐4‐fluorophenol]: the ΔTm at 1000 µM on TbINO1 (setting [1]) was 0.02 ± 0.05 °C. Besides, the viability at 500 µM turned out to be 94.9 ± 15.3% with HeLa cells (setting [2]) and 77.4% in the assay with A549 cells.

`OCc1c[nH]c2ccccc12` [compound 162, 1H-indol-3-ylmethanol]: the ΔTm at 1000 µM on TbINO1 (read-out: TbIno1 Tm shift [°C]) worked out at 2.31 ± 0.06 °C. For the same molecule, the viability at 500 µM came out at 16.3 ± 10.6% in the assay with HeLa cells (setting [2]), 16.3 ± 10.6% in the assay with HeLa cells (setting [3]) and 41.6% in the assay with A549 cells. Further, the CC50 in the assay with HeLa cells was 103 ± 6 µM.

Take `OCc1cccc2[nH]ccc12` [compound 163, 1H-indol-4-ylmethanol]: the ΔTm at 1000 µM on TbINO1 (read-out: TbIno1 Tm shift [°C]) came out at 1.9 ± 0.06 °C. In addition, the viability at 500 µM in the assay with HeLa cells (setting [2]) was 103 ± 8.7%; with HeLa cells (setting [3]), 103 ± 8.7%; with A549 cells it was 47%. The CC50 with HeLa cells was found to be 2500 ± 200 µM.

Consider `Cc1cc(O)cc(C)c1C#N` [compound 164, 4‐hydroxy‐2,6‐dimethylbenzonitrile], for which, on TbINO1 (setting [1]), the ΔTm at 1000 µM is 0.26 ± 0.08 °C. Besides, the values for the viability at 500 µM in the assay on HeLa cells (setting [2]) and in the assay on A549 cells were 55.8 ± 12.1% and 90%, respectively.

As for `Cc1cccc2c1NCCC2` [compound 166, 8‐methyl‐1,2,3,4‐tetrahydroquinoline], the ΔTm at 1000 µM at TbINO1 (setting [1]) turned out to be 0.06 ± 0.07 °C. The viability at 500 µM with HeLa cells (setting [2]) stood at 95.5 ± 1.6%; in the assay with A549 cells, 76%.

As to `OCc1ccc2occc2c1` [compound 168, 1‐benzofuran‐5‐ylmethanol], the ΔTm at 1000 µM on TbINO1 (setting [1]) was found to be 0.39 ± 0.08 °C. Also, the viability at 500 µM with HeLa cells (setting [2]) was found to be 120 ± 11.4%; with A549 cells, 75.1%.

Regarding `OCc1nc2ccccc2[nH]1` [compound 169, 1H‐benzimidazol‐2‐ylmethanol], the ΔTm at 1000 µM on TbINO1 (setting [1]) worked out at 0.04 ± 0.07 °C. The viability at 500 µM with HeLa cells (setting [2]) was 121 ± 15%; in the assay on A549 cells, 81.7%.

Consider `OCc1ccc2[nH]cnc2c1` [compound 170, 1H‐benzimidazol‐5‐ylmethanol], for which the ΔTm at 1000 µM at TbINO1 (setting [1]) was determined as 0.15 ± 0.07 °C. For the same molecule, the results for the viability at 500 µM in the assay with HeLa cells (setting [2]) and with A549 cells were 98.3 ± 4.2% and 92%, respectively.

Consider `OCc1ccc2nccn2c1` [compound 171, imidazo[1,2‐a]pyridin‐6‐ylmethanol], for which the ΔTm at 1000 µM at TbINO1 (setting [1]) is 0.84 ± 0.09 °C. For the same molecule, the results for the viability at 500 µM in the assay with HeLa cells (setting [2]) and with A549 cells were 94.1 ± 15.6% and 99.4%, respectively.

Take `OCc1cn2ccccc2n1` [compound 172, imidazo[1,2‐a]pyridin‐2‐ylmethanol]: on TbINO1 (setting [1]), the ΔTm at 1000 µM worked out at 0.44 ± 0.08 °C. The values for the viability at 500 µM with HeLa cells (setting [2]) and with A549 cells were 86.6 ± 15.1% and 97.5%, respectively.

On to `CCc1cccc(C(C)=O)c1` [compound 174, 1‐(3‐ethylphenyl)ethan‐1‐one], for which the ΔTm at 1000 µM on TbINO1 (setting [1]) came to 0.8 ± 0.05 °C. In addition, the viability at 500 µM in the assay on HeLa cells (setting [2]) was 100 ± 7.3%; in the assay on A549 cells it was 79.2%.

On to `Nc1ccc2c(c1)C(=O)OC2` [compound 175, 6‐amino‐1,3‐dihydroisobenzofuran‐1‐one], for which, on TbINO1 (setting [1]), the ΔTm at 1000 µM was found to be 0.04 ± 0.08 °C. Also, the viability at 500 µM in the assay on HeLa cells (setting [2]) was found to be 106 ± 17%; in the assay with A549 cells, 79.5%.

For the molecule `Cc1cccc(C(N)=O)c1C` [compound 176, 2,3‐dimethylbenzamide], at TbINO1 (setting [1]), the ΔTm at 1000 µM turned out to be 0.06 ± 0.07 °C. For the same molecule, the figures for the viability at 500 µM in the assay on HeLa cells (setting [2]) and with A549 cells were 88.2 ± 12.4% and 68.7%, respectively.

Consider `CCc1ccc(CNC)cc1` [compound 180, N‐(4‐ethylbenzyl)‐N‐methylamine], for which the ΔTm at 1000 µM on TbINO1 (setting [1]) came to 0.14 ± 0.08 °C. Also, the viability at 500 µM was found to be 99.8 ± 1.1% in the assay on HeLa cells (setting [2]) and 87% with A549 cells.

Consider `Cn1ccc(C(F)(F)F)n1` [compound 181, 1‐methyl‐3‐(trifluoromethyl)‐1H‐pyrazole], for which the ΔTm at 1000 µM on TbINO1 (setting [1]) turned out to be 0.11 ± 0.08 °C. Besides, the viability at 500 µM in the assay on HeLa cells (setting [2]) was 115 ± 9.9%; in the assay on A549 cells it was 58.4%.

With `O=C1COc2cc(O)ccc21` [compound 182, 6‐hydroxy‐2,3‐dihydrobenzo[b]furan‐3‐one], on TbINO1, the “Tb Ino1 Tm Shift [˚C]” value turned out to be 0.92 ± 0.09 °C. The “HeLa Cells Alamar Blue” value in the assay with HeLa cells is recorded as 119.6 ± 2.4 percentage of controls. In the assay on A549 cells, the “A549 Cells Alamar Blue” value was 65.6 percentage of controls.

Take `COC(=O)c1ccccc1C` [compound 183, methyl 2‐methylbenzoate]: the ΔTm at 1000 µM on TbINO1 (setting [1]) is 0.14 ± 0.08 °C. For the same molecule, the viability at 500 µM in the assay with HeLa cells (setting [2]) was determined as 114 ± 4.3%; in the assay on A549 cells, 51%.

Consider `CC(=O)c1cc(C)ccc1O` [compound 184, 1‐(2‐hydroxy‐5‐methylphenyl)ethan‐1‐one], for which the “Tb Ino1 Tm Shift [˚C]” value at TbINO1 was found to be 0.14 ± 0 °C. Also, in the assay with HeLa cells, the “HeLa Cells Alamar Blue” value is recorded as 91.7 ± 11.6 percentage of controls. Further, the “A549 Cells Alamar Blue” value in the assay with A549 cells was 53.1 percentage of controls.

Consider `COC(=O)c1cccc(C)c1` [compound 185, methyl 3‐methylbenzoate], for which, on TbINO1 (setting [1]), the ΔTm at 1000 µM was 0.14 ± 0.09 °C. The viability at 500 µM with HeLa cells (setting [2]) was determined as 106 ± 10.4%; in the assay with A549 cells it was 61.3%.

As for `OCc1cccc2c1OCC2` [compound 186, 2,3-Dihydrobenzo[b]furan-7-methanol], the ΔTm at 1000 µM at TbINO1 (read-out: TbIno1 Tm shift [°C]) worked out at 4.09 ± 0.09 °C. Moreover, the viability at 500 µM in the assay with HeLa cells (setting [2]) came to 86.5 ± 14.8%; with HeLa cells (setting [3]), 86.5 ± 14.8%; with A549 cells, 41.8%.

Turning to `CC(=O)NCc1cccnc1` [compound 188, N1‐(3‐pyridylmethyl)acetamide], the ΔTm at 1000 µM on TbINO1 (setting [1]) amounted to 0.05 ± 0.07 °C. The viability at 500 µM in the assay on HeLa cells (setting [2]) is 104 ± 7.3%; with A549 cells it was 69.5%.

`N#CCCNCc1ccco1` [compound 189, 3‐[(2‐furylmethyl)amino]propanenitrile]: on TbINO1 (setting [1]), the ΔTm at 1000 µM came out at 0.75 ± 0.08 °C. Further, the viability at 500 µM was 92.5 ± 7.2% in the assay with HeLa cells (setting [2]) and 84.4% with A549 cells.

Regarding `Cc1ccc(C(N)=O)c(N)c1` [compound 190, 2-amino-4-methylbenzamide], the ΔTm at 1000 µM on TbINO1 (read-out: TbIno1 Tm shift [°C]) amounted to 1.52 ± 0.06 °C. Also, the viability at 500 µM with HeLa cells (setting [2]) was 46.7 ± 23.7%; in the assay with HeLa cells (setting [3]), 46.7 ± 23.7%; in the assay on A549 cells, 106%.

Consider `Nc1ccc2ncsc2c1` [compound 191, 1,3‐benzothiazol‐6‐amine], for which the ΔTm at 1000 µM on TbINO1 (setting [1]) was found to be 0.44 ± 0.11 °C. In addition, the figures for the viability at 500 µM in the assay on HeLa cells (setting [2]) and in the assay on A549 cells were 76.3 ± 15.1% and 38%, respectively.

For the molecule `Nc1ccc2c(c1)OCCO2` [compound 193, 2,3‐dihydro‐1,4‐benzodioxin‐6‐amine], the ΔTm at 1000 µM at TbINO1 (setting [1]) is 0.4 ± 0.09 °C. The viability at 500 µM worked out at 79.9 ± 13.6% in the assay on HeLa cells (setting [2]) and 44.7% in the assay with A549 cells.

For the molecule `COC(=O)c1cccc(N)c1` [compound 194, methyl 3‐aminobenzoate], the ΔTm at 1000 µM on TbINO1 (setting [1]) is 0.78 ± 0.06 °C. The values for the viability at 500 µM in the assay on HeLa cells (setting [2]) and with A549 cells were 88.3 ± 9.2% and 38.9%, respectively.

Turning to `NC1=CC=C2OCOCC2C1` (stereo not drawn) [compound 195, 4,5‐dihydro‐1,3‐benzodioxine‐6‐amine], the ΔTm at 1000 µM at TbINO1 (setting [1]) is 1.16 ± 0.06 °C. Further, the values for the viability at 500 µM in the assay on HeLa cells (setting [2]) and in the assay with A549 cells were 77.4 ± 10.5% and 54.1%, respectively.

Regarding `Cc1ccc(C(=O)O)c(N)c1` [compound 196, 2‐amino‐4‐methylbenzoic acid], on TbINO1 (setting [1]), the ΔTm at 1000 µM came out at 1.1 ± 0.06 °C. For the same molecule, the values for the viability at 500 µM in the assay on HeLa cells (setting [2]) and in the assay with A549 cells were 97.4 ± 4.1% and 36.7%, respectively.

On to `CC(=O)c1ccc(C#N)s1` [compound 198, 5‐acetylthiophene‐2‐carbonitrile], for which the ΔTm at 1000 µM at TbINO1 (setting [1]) came out at 0.24 ± 0.07 °C. In addition, the viability at 500 µM in the assay on HeLa cells (setting [2]) amounted to 93.3 ± 15.3%; in the assay on A549 cells, 61.2%.

On to `O=C(O)Cc1ccccc1O` [compound 201, 2‐(2‐hydroxyphenyl)acetic acid], for which the ΔTm at 1000 µM on TbINO1 (setting [1]) turned out to be 0.65 ± 0.08 °C. Also, the viability at 500 µM was 94.1 ± 15.7% with HeLa cells (setting [2]) and 94.2% in the assay on A549 cells.
